# Reference: PMC7115513 (European Journal of Medicinal Chemistry, 2012)
# Where two headings read alike, the source gives them in different places. Marks after values point to notes of the source that are not given here.
# How the values were obtained:
# [1] = tested on: Madin Darby canine kidney (MDCK) cells
# GC rich CT DNA = assay type: binding, calf
# P. falciparum CQ^R (K1) = test: microbe, parasite or virus in culture; assay type: cell-based, Plasmodium falciparum
# [2] = pH 5.8; cited from earlier work
# [3] = pH 5.6; cited from earlier work
# [4] = assay type: binding; settings: heme 2.4 μM, DMSO:H2O/4:6, v/v; increasing compound concentration
# P. falciparum CQ^S (3D7) = assay type: cell-based, Plasmodium falciparum; settings: read-out: IC50 CQ^S (3D7); CQ sensitive strain; primary screening
Molecule,Cytotoxicity MIC ([1]; dog),also measured
"NC12CC3CC(CC(C3)C1)C2 [Amantadine, reference compound]","h 50% cytotoxic concentration, as determined by measuring the cell viability with the colorimetric formazan- based MTS assay (reference drugs used: Oseltamivir carboxylate CC50/MIC >100, Ribavirin CC50/MIC >100, Amantadine CC50/MIC >200 and Rimantadine CC50/MIC >200). μM",–
"Cc1nc(NCCNc2ccnc3cc(Cl)ccc23)nc(-c2ccccc2[N+](=O)[O-])c1C(=O)OC(C)C [Compound 10p, 5-Isopropyloxycarbonyl-6-methyl-4-(2-nitrophenyl)-2-[(7-chloroquinolin-4-ylamino)ethylamino] pyrimidine]",≥0.8 µM,–
"Cc1nc(NCCCCNc2ccnc3cc(Cl)ccc23)nc(-c2ccccc2[N+](=O)[O-])c1C(=O)OC(C)C [Compound 10r, 5-Isopropyloxycarbonyl-6-methyl-4-(2-nitrophenyl)-2-[(7-chloroquinolin-4-ylamino)butylamino] pyrimidine]",4.0 µM,"binding constant (log K) from fluorescence data, CT DNA (GC rich CT DNA): 4.67"
"CCOC(=O)c1c(C)nc(NCCCCNc2ccnc3cc(Cl)ccc23)nc1-c1ccccc1 [Compound 10c, 5-Ethoxycarbonyl-6-methyl-4-phenyl-2-[(7-chloroquinolin-4-ylamino)butylamino]pyrimidine]",0.8 µM,–
"CCOC(=O)c1c(C)nc(NCCCNc2ccnc3cc(Cl)ccc23)nc1-c1ccccc1 [Compound 10b, 5-Ethoxycarbonyl-6-methyl-4-phenyl-2-[(7-chloroquinolin-4-ylamino)propylamino]pyrimidine]",0.8 µM,–
"CCOC(=O)c1c(C)nc(NCCCNc2ccnc3cc(Cl)ccc23)nc1C [Compound 10l, 5-Ethoxycarbonyl-6-methyl-4-methyl-2-[(7-chloroquinolin-4-ylamino)propylamino]pyrimidine]",20 µM,–
"CC(N)C12CC3CC(CC(C3)C1)C2 (stereo not drawn) [Rimantadine, reference compound]","h 50% cytotoxic concentration, as determined by measuring the cell viability with the colorimetric formazan- based MTS assay (reference drugs used: Oseltamivir carboxylate CC50/MIC >100, Ribavirin CC50/MIC >100, Amantadine CC50/MIC >200 and Rimantadine CC50/MIC >200). μM",–
"CCN(CC)CCCC(C)Nc1ccnc2cc(Cl)ccc12 (stereo not drawn) [Compound 2, chloroquine, reference compound]",–,"IC50 (P. falciparum CQ^R (K1); Plasmodium falciparum, K1, read-out: IC50 CQ^R (K1)): 202 nM; μ-oxo heme log K [2]: 5.6 ^c; Monomeric heme log K [3]: 4.82"
"CCOC(=O)c1c(C)nc(Nc2ccc(Nc3ccnc4cc(Cl)ccc34)cc2)nc1-c1ccccc1 [Compound 10i, 5-Ethoxycarbonyl-6-methyl-4-phenyl-2-[4-(7-chloroquinolin-4-ylamino)phenylamino] pyrimidine]",–,change in heme absorbance at 402 nm on titration [4]: marked gradual decrease in absorbance at 402 nm
"CCOC(=O)c1c(C)nc(Nc2ccccc2Nc2ccnc3cc(Cl)ccc23)nc1-c1ccccc1 [Compound 10h, 5-Ethoxycarbonyl-6-methyl-4-phenyl-2-[2-(7-chloroquinolin-4-ylamino)phenylamino] pyrimidine]",–,change in heme absorbance at 402 nm on titration [4]: no change in the absorbance at 402 nm
5-Ethoxycarbonyl-6-methyl-4-phenyl-2-[5-(7-chloroquinolin-4-ylamino)-2-methylpentylamino] pyrimidine [Compound 10k],–,IC50 (P. falciparum CQ^S (3D7)): 287 nM; IC50 (P. falciparum CQ^R (K1); read-out: IC50 CQ^R (K1)): 860 nM
"CCOC(=O)c1c(C)nc(NCCCCNc2ccnc3cc(Cl)ccc23)nc1C [Compound 10m, 5-Ethoxycarbonyl-6-methyl-4-methyl-2-[(7-chloroquinolin-4-ylamino)butylamino]pyrimidine]",4 µM,–
"CCOC(=O)c1c(C)nc(NCCNc2ccnc3cc(Cl)ccc23)nc1-c1ccccc1 [Compound 10a, 5-Ethoxycarbonyl-6-methyl-4-phenyl-2-[(7-chloroquinolin-4-ylamino)ethylamino] pyrimidine]",0.8 µM,–
"NC(=O)c1ncn([C@@H]2O[C@H](CO)[C@@H](O)[C@H]2O)n1 [Ribavirin, reference compound]","h 50% cytotoxic concentration, as determined by measuring the cell viability with the colorimetric formazan- based MTS assay (reference drugs used: Oseltamivir carboxylate CC50/MIC >100, Ribavirin CC50/MIC >100, Amantadine CC50/MIC >200 and Rimantadine CC50/MIC >200). μM",–
"Cc1nc(NCCCNc2ccnc3cc(Cl)ccc23)nc(-c2cccc([N+](=O)[O-])c2)c1C(=O)OC(C)C [Compound 10n, 5-Isopropyloxycarbonyl-6-methyl-4-(3-nitrophenyl)-2-[(7-chloroquinolin-4-ylamino)propylamino]pyrimidine]",0.8 µM,–
Oseltamivir carboxylate [reference compound],–,"CC50 [1]: > 100000 nM; Cytotoxicity MIC [1]: h 50% cytotoxic concentration, as determined by measuring the cell viability with the colorimetric formazan- based MTS assay (reference drugs used: Oseltamivir carboxylate CC50/MIC >100, Ribavirin CC50/MIC >100, Amantadine CC50/MIC >200 and Rimantadine CC50/MIC >200). μM"
